Reference: ChEMBL document CHEMBL1201862, “PubChem BioAssay data set” (2004)
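Cultured in 96-well plates, cells were exposed to test compound for 48 hours across five concentrations. GI50 = concentration required for 50% inhibition of growth.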 The source made the active and inactive calls. Cut-off read from the data, not from the text of the source: active = GI50 up to about 1.1 µM and inactive = higher.

Key:
Assay in all cases: NCI anticancer screen, dose series, 48 h
A498 = test system: A498
A549 = test system: A549
CAKI-1 = test system: CAKI-1
CCRF-CEM = test system: CCRF-CEM
COLO 205 = test system: COLO 205
DU-145 = test system: DU-145
HCC 2998 = test system: HCC 2998
HCT-116 = test system: HCT-116
HT-29 = test system: HT-29
MCF7 = test system: MCF7
MDA-MB-435 = test system: MDA-MB-435
NCI-H226 = test system: NCI-H226
NCI/ADR-RES = test system: NCI/ADR-RES
OVCAR-5 = test system: OVCAR-5
PC-3 = test system: PC-3
SF-295 = test system: SF-295
SNB-19 = test system: SNB-19
SNB-75 = test system: SNB-75
SR = test system: SR
UACC-62 = test system: UACC-62

SMILES | GI50 (A498) | GI50 (A549) | GI50 (CAKI-1) | GI50 (CCRF-CEM) | GI50 (COLO 205) | GI50 (DU-145) | GI50 (HCC 2998) | GI50 (HCT-116) | GI50 (HT-29) | GI50 (MCF7) | GI50 (MDA-MB-435) | GI50 (NCI-H226) | GI50 (NCI/ADR-RES) | GI50 (OVCAR-5) | GI50 (PC-3) | GI50 (SF-295) | GI50 (SNB-19) | GI50 (SNB-75) | GI50 (SR) | GI50 (UACC-62)
CCC1NC(=O)C(NC(=O)c2ncccc2O)C(C)OC(=O)C(c2ccccc2)NC(=O)C2CC(=O)CCN2C(=O)C(Cc2ccccc2)N(C)C(=O)C2CCCN2C1=O (stereo unspecified) | > 100 µM (inactive) | > 100 µM (inactive) | > 100 µM (inactive) | 41.5 µM (inactive) | > 100 µM (inactive) | > 100 µM (inactive) | > 100 µM (inactive) | > 100 µM (inactive) | > 100 µM (inactive) | > 100 µM (inactive) | > 100 µM (inactive) | > 100 µM (inactive) | > 100 µM (inactive) | > 100 µM (inactive) | > 100 µM (inactive) | > 100 µM (inactive) | > 100 µM (inactive) | > 100 µM (inactive) | 37.4 µM (inactive) | > 100 µM (inactive)
O=C1CCC(CCc2nc3ccccc3[nH]2)(c2ccccc2)C(=O)N1 (stereo unspecified) | > 100 µM (inactive) | > 100 µM (inactive) | > 100 µM (inactive) | > 100 µM (inactive) | > 100 µM (inactive) | > 100 µM (inactive) | > 100 µM (inactive) | > 100 µM (inactive) | > 100 µM (inactive) | > 100 µM (inactive) | > 100 µM (inactive) | > 100 µM (inactive) | > 100 µM (inactive) | > 100 µM (inactive) | > 100 µM (inactive) | > 100 µM (inactive) | > 100 µM (inactive) | 86.1 µM (inactive) | > 100 µM (inactive) | > 100 µM (inactive)
CSc1ccc(NC(=S)NN(C)C)cc1 | > 10 µM (inactive) | > 10 µM (inactive) | > 10 µM (inactive) | > 10 µM (inactive) | > 10 µM (inactive) | > 10 µM (inactive) | > 10 µM (inactive) | > 10 µM (inactive) | > 10 µM (inactive) | > 10 µM (inactive) | > 10 µM (inactive) | > 10 µM (inactive) | > 10 µM (inactive) | – | > 10 µM (inactive) | > 10 µM (inactive) | > 10 µM (inactive) | > 10 µM (inactive) | > 10 µM (inactive) | > 10 µM (inactive)
CC(=O)OCC1OC(N2C(C)=C(C(C)=O)C(c3ccco3)C(C#N)=C2S)C(OC(C)=O)C(OC(C)=O)C1OC(C)=O (stereo unspecified) | > 100 µM (inactive) | > 100 µM (inactive) | > 100 µM (inactive) | > 100 µM (inactive) | > 100 µM (inactive) | > 100 µM (inactive) | > 100 µM (inactive) | > 100 µM (inactive) | > 100 µM (inactive) | > 100 µM (inactive) | > 100 µM (inactive) | > 100 µM (inactive) | > 100 µM (inactive) | > 100 µM (inactive) | > 100 µM (inactive) | > 100 µM (inactive) | > 100 µM (inactive) | > 100 µM (inactive) | 95.3 µM (inactive) | > 100 µM (inactive)
Cc1ccc(CC(Cc2ccc(C)cc2C(=O)O)C(=O)O)cc1 (stereo unspecified) | > 100 µM (inactive) | > 100 µM (inactive) | > 100 µM (inactive) | > 100 µM (inactive) | > 100 µM (inactive) | > 100 µM (inactive) | > 100 µM (inactive) | > 100 µM (inactive) | > 100 µM (inactive) | > 100 µM (inactive) | > 100 µM (inactive) | > 100 µM (inactive) | > 100 µM (inactive) | > 100 µM (inactive) | > 100 µM (inactive) | > 100 µM (inactive) | > 100 µM (inactive) | > 100 µM (inactive) | > 100 µM (inactive) | 43 µM (inactive)
COc1ccc(C2SCC(=O)N2NC2=NC(=O)CC(=O)N2)cc1 (stereo unspecified) | > 100 µM (inactive) | > 100 µM (inactive) | > 100 µM (inactive) | > 100 µM (inactive) | > 100 µM (inactive) | > 100 µM (inactive) | > 100 µM (inactive) | > 100 µM (inactive) | > 100 µM (inactive) | > 100 µM (inactive) | > 100 µM (inactive) | > 100 µM (inactive) | > 100 µM (inactive) | > 100 µM (inactive) | > 100 µM (inactive) | > 100 µM (inactive) | – | > 100 µM (inactive) | > 100 µM (inactive) | > 100 µM (inactive)
CC(=O)c1c(=O)n(-c2ccc(C)cc2)c(O)c2c(N)n[nH]c12 | > 100 µM (inactive) | > 100 µM (inactive) | > 100 µM (inactive) | > 100 µM (inactive) | > 100 µM (inactive) | > 100 µM (inactive) | > 100 µM (inactive) | > 100 µM (inactive) | > 100 µM (inactive) | > 100 µM (inactive) | > 100 µM (inactive) | > 100 µM (inactive) | > 100 µM (inactive) | > 100 µM (inactive) | > 100 µM (inactive) | – | > 100 µM (inactive) | > 100 µM (inactive) | > 100 µM (inactive) | > 100 µM (inactive)
CCC1=NC(N/N=C/c2ccccc2O)=N/C1=C\c1ccccc1O | 26.7 µM (inactive) | 12.9 µM (inactive) | 19.6 µM (inactive) | 3.94 µM (inactive) | 13.3 µM (inactive) | 18.2 µM (inactive) | 10.2 µM (inactive) | 7.59 µM (inactive) | 4.81 µM (inactive) | 5.52 µM (inactive) | 13.3 µM (inactive) | 22.1 µM (inactive) | 2.68 µM (inactive) | 26.7 µM (inactive) | 15.5 µM (inactive) | 7.69 µM (inactive) | 14.6 µM (inactive) | 17.5 µM (inactive) | 27.9 µM (inactive) | 9.79 µM (inactive)
COc1ccc2c(c1)-c1c(c3cc(OC)ccc3n1CCN(C)C)CC2 | 11.7 µM (inactive) | 15.4 µM (inactive) | 14.6 µM (inactive) | 6.35 µM (inactive) | 12.2 µM (inactive) | 13.7 µM (inactive) | 7.48 µM (inactive) | 12.1 µM (inactive) | 5.18 µM (inactive) | 14.4 µM (inactive) | 12.6 µM (inactive) | 13.4 µM (inactive) | 16.3 µM (inactive) | 15.7 µM (inactive) | 12.6 µM (inactive) | 17.8 µM (inactive) | – | 21.9 µM (inactive) | 7.03 µM (inactive) | 10.9 µM (inactive)
Cc1cc(=O)[nH]c2cc(NC(=O)C(C)NC(=O)C(C)NC(=O)C(C)NC(=O)OC(C)(C)C)ccc12 (stereo unspecified) | > 15 µM (inactive) | > 15 µM (inactive) | > 15 µM (inactive) | > 15 µM (inactive) | > 15 µM (inactive) | > 15 µM (inactive) | > 15 µM (inactive) | > 15 µM (inactive) | > 15 µM (inactive) | > 15 µM (inactive) | > 15 µM (inactive) | > 15 µM (inactive) | > 15 µM (inactive) | > 15 µM (inactive) | > 15 µM (inactive) | > 15 µM (inactive) | > 15 µM (inactive) | > 15 µM (inactive) | > 15 µM (inactive) | > 15 µM (inactive)
O=[N+]([O-])c1cc(/C=N/C23CC4CC(CC(C4)C2)C3)ccc1Cl | > 100 µM (inactive) | > 100 µM (inactive) | 6.71 µM (inactive) | 2.82 µM (inactive) | 42.6 µM (inactive) | 27.8 µM (inactive) | 30.5 µM (inactive) | 3.94 µM (inactive) | 19.1 µM (inactive) | 9.02 µM (inactive) | 16.5 µM (inactive) | 51.1 µM (inactive) | 26.3 µM (inactive) | 34 µM (inactive) | 19.8 µM (inactive) | 37.9 µM (inactive) | 28.6 µM (inactive) | 36.2 µM (inactive) | 4.37 µM (inactive) | 14.3 µM (inactive)
Cc1ccc2c(c1)nc1n2C(N)=Nc2ccccc2S1 | 49.1 µM (inactive) | 25.4 µM (inactive) | > 100 µM (inactive) | 2.65 µM (inactive) | 14.8 µM (inactive) | > 69.8 µM (inactive) | 51.3 µM (inactive) | 4.4 µM (inactive) | 15.8 µM (inactive) | > 27.2 µM (inactive) | 71.1 µM (inactive) | 30.3 µM (inactive) | 43.4 µM (inactive) | > 75.7 µM (inactive) | 75 µM (inactive) | 47.6 µM (inactive) | 35.8 µM (inactive) | > 54.6 µM (inactive) | 4.7 µM (inactive) | > 60.8 µM (inactive)
CN(C)c1n/c(=N/Cc2ccccc2)ss1 | > 10 µM (inactive) | > 10 µM (inactive) | > 10 µM (inactive) | 0.646 µM (active) | > 10 µM (inactive) | > 10 µM (inactive) | > 9.64 µM (inactive) | > 10 µM (inactive) | > 10 µM (inactive) | > 10 µM (inactive) | > 10 µM (inactive) | > 10 µM (inactive) | > 10 µM (inactive) | > 10 µM (inactive) | > 10 µM (inactive) | > 10 µM (inactive) | > 10 µM (inactive) | > 10 µM (inactive) | 0.587 µM (active) | > 10 µM (inactive)
O=c1cc(O)c2c(O)cc(O)cc2o1 | > 100 µM (inactive) | > 100 µM (inactive) | > 100 µM (inactive) | > 100 µM (inactive) | > 100 µM (inactive) | > 100 µM (inactive) | > 100 µM (inactive) | > 100 µM (inactive) | > 100 µM (inactive) | > 100 µM (inactive) | > 100 µM (inactive) | > 100 µM (inactive) | > 100 µM (inactive) | > 100 µM (inactive) | > 100 µM (inactive) | > 100 µM (inactive) | > 100 µM (inactive) | > 100 µM (inactive) | > 100 µM (inactive) | > 100 µM (inactive)
